Measured values from patent US20040086949A1, “Method for preparing a ligand presenting assembly (LPA), an LPA and uses thereof” (Statens Serum Institut, priority 1998, published 2004).
Ends that are not written are not given here.

Experiments:
[1] = test system: C-terminal B-cell epitope of OspC; test: Immunogenicity of LPA-VI in mice, serum Ig ELISA against recombinant OspC and LPA-I; assay type: in vivo; conditions: five female C57 black mice, 5 μg i.p. on days 0 and 14 with Al(OH)3 and Freund's incomplete adjuvant, sera diluted 200 fold
Description: The capability of an LPA according to the present invention to induce a humoral immune response was studied by immunising mice with LPA-VI. Five female C57 black mice (age 6 to 8 weeks) were immunised two times intraperitoneally with a 2-week interval and were bled on days 0, 14, and 28. Each immunisation dose contained. 5 μg of LPA-VI dissolved in 0.25 ml 0.9% NaCl and supplemented with 1 mg Al(OH)3 (Superfos Biosector, Denmark) and 0.25 ml Freund's incomplete adjuvant. The serum samples were diluted 200 fold and then tested by ELISA for Ig reactivity against OspC produced on recombinant form (WO 97/42221) and LPA-I (FIG. 8).
FIG. 8. Mean ELISA titer of sera from five mice immunised with LPA-VI on days 0 and 14. The microdilution plates were coated with LPA-I (diamond) or recombinant OspC (Squares), and the sera were analysed in a 200-fold dilution.

[2] = test system: IgM antibodies in sera from patients with neuroborreliosis; test: Indirect IgM-ELISA with LPA-I or biotinylated-pepC10 as coated antigen; assay type: binding, human; conditions: NB sera (n = 97), sera diluted 1/200, 98% specific cut-off
Description: The capability of LPA-I according to the present invention to react with sera from patients with neuroborreliosis was evaluated against that of an ELISA based on biotinylated-pepC10, wherein pepC10 is identical to the amino acid sequence of Seq. ID 1.
Preparing plates for the LPA-I-ELISA: Microtiter plates (Maxisorb; Nunc, Roskilde, Denmark) were coated overnight at 4° C. with 0.6 μg/ml of LPA-I diluted in 0.05 M bicarbonate pH 9.6, blocked with 3% (w/v) milk powder in phosphate-buffered saline (PBS) for 1 h, and reacted with sera diluted 1/200 in 1% (w/v) milk powder in PBS containing 0.05% Tween 20 (PBST) and 0.7 M NaCl for 2 h. The secondary antibody was a peroxidase conjugated rabbit anti-human IgM (Dako, Denmark, codes P-215) diluted 1/1000 in 1% (w/v) milk powder in PBST. After 1 h of incubation, bound secondary antibody was quantitated by colouring with o-phenylenediamine and H2O2 in citrate buffer (Sigma, St. Louis, Mo.) for 30 min. Optical density (OD) at 492 nm was determined in a plate reader (EAR 400 AC-SLT, Labinstruments, Austria). Plates were washed extensively with PBST-0.5M NaCl between each incubation step. The 98% specific diagnostic cut-off level was OD of 0.270 for IgM detection.
Preparing plates for the biotinylated-pepC10-ELISA: ELISAs with biotinylated-pepC10, were performed essentially as described above for LPA-I, except that microtiter plates were first coated with streptavidin (2.5 μg/ml) (Zymed, S. Avidinii) in citrate buffer (pH 5) overnight at 4° C., and then incubated with biotinylated pepC10 (0.1 μg/ml) in 1% (w/v) milk powder in PBST-0.37 M NaCl overnight at 4° C.
(i) Sera from 97 Danish patients with neuroborreliosis (NB). All patients had been hospitalised in 1994 ([…] between 4 and 80 years of age; median age, 49). The selection was based on a positive test for B. burgdorferi specific intrathecal antibody synthesis. The diagnosis was further corroborated by the presence of lymphocytic pleocytosis in CSF (median cell count, 124/μl) and one of the following manifestations: lymphocytic meningoradiculitis with typical painful radiculitis, mononeuritis multiplex (Bannwarth's syndrome), radiculomyelitis, monosymptomatic fascialis paresis (all children), subacute lymphocytic meningitis, and chronic progressive encephalomyelitis. Of the 100 patients, 48 recalled a previous EM-like skin lesion. Disease duration, defined as the time from onset of neurological symptoms until diagnostic blood and CSF samples were taken, ranged from 1 week to 26 weeks (median duration, 3 weeks).
Sera from 80 healthy controls were used for determination of the 98%-specific cut-off level in ELISAs.

| Substance | induction of antibodies against the C-terminal B-cell epitope of OspC [1] | % of IgM reactive sera (frequency of positive Lyme borreliosis sera) [2] | No. of IgM reactive sera [2] |
| --- | --- | --- | --- |
| (HO-ProLysLysProSerGluAlaValValPro-COCH2)2N-Lys(AlaSerAlaAlaAlaGluIleGlyAlaPheAsnTrpGlnGlnGluThrMet-H)2 [LPA-VI] | highly effective in inducing antibodies | – | – |
| FmocN(CH2CO-ProValValAlaGluSerProLysLysPro-OH)2 [LPA-I] | – | 42.3% | 41 |
| biotinylated-pepC10: biotinylated peptide; pepC10 is identical to the amino acid sequence of Seq. ID 1 (ProValValAlaGluSerProLysLysPro), bound to streptavidin-coated plates (PVVAESPKKP; also: biotinylated, place not given here) [reference compound] | – | 43.3% | 42 |
